Each structure is given as a SMILES string.

The text below walks through data of a melting point compilation (Tetko et al.; mined from patent text by program, amines drawn as free bases though some values may be those of a salt).

The compound `CN(C)CCOc1ccc2[nH]c(C(=O)N3CC(CCl)c4c3cc([N+](=O)[O-])c3cc([N+](=O)[O-])ccc43)cc2c1` (stereo not drawn) returned a melting point of 263 to 264 °C.
With `CC(C)(C)c1ccc(Nc2nnc(Cc3cnc(O)c(-c4ccco4)c3)c3ccccc23)cc1` the figure was 180 to 182 °C.
With `O=C(COc1ncccn1)NC1CCN(Cc2ccc(Cl)c(Cl)c2)CC1` the figure was 120 to 122 °C; with `O=C(c1ccc2c(c1)CCO2)N1Cc2cccnc2Nc2ccccc21`, 188 °C.
With `COc1cc(CCc2ccc(Nc3ccccc3C(=O)O)cc2)cc(OC)c1OC` the figure was 146 to 147 °C; with `CCCCCCCCCc1ccc(-c2ccc(OCC(C)CC)nn2)cc1` (stereo not drawn), 78 °C; with `CCC(COc1cccc(COc2cccc3cccnc23)c1)OC(C)=O` (stereo not drawn), 77 to 79 °C.
Compound `CCCNC(=O)C1CC(=O)N(Cc2ccccc2)C1` (stereo not drawn) gave a melting point of 86 to 87 °C.
Regarding `O=C(NCCO[N+](=O)[O-])c1cnc(-c2ccccc2)s1`, the melting point was in the range of 148 to 149 °C.
As to `CCCOc1cc(C(=O)O)cc([N+](=O)[O-])c1C(=O)c1ccccc1`, the melting point lay within 160 to 162 °C.
With `CC(Br)=C(c1ccc(N(C)C)cc1)c1ccc(N(C)C)cc1` the figure was 119 to 122 °C; with `O=C(c1ccc(Cl)cc1)c1ccc(Cc2c(Cl)cc(N3N=CCNC3=O)cc2Cl)cc1`, 205 to 206 °C; with `O=C(O)CCc1cnn(-c2ccccc2)c1-c1ccccc1`, 159 to 160 °C.
For the compound `CC(C)(C)OC(=O)Nc1ccc(-c2ccc(F)cc2)cc1NC(=O)CC(=O)c1cccc(C#N)c1`, the melting point was 177 to 179 °C.
The same measure for `COC(=O)CCCc1cc2nc(Cl)ccc2n1S(=O)(=O)c1ccc2nc(NC(C)=O)sc2c1`: 274 °C; for `Cc1ccc(S(=O)(=O)OCC2COc3ccc4[nH]c(C(F)(F)F)nc4c3O2)cc1` (stereo not drawn): 114 to 116 °C; for `C[C@@H]1Cc2cc3c(cc2C(c2ccc([N+](=O)[O-])cc2)=NN1c1cnns1)OCO3`: 175 to 176 °C.
With `O=C1CNc2ncc(I)cc2N1Cc1cc(Cl)ccc1Cl` the figure was over 200 °C; with `OCc1ccc(/C=C/c2ccncc2)nc1`, over 199 °C; with `Cc1cnn(CN(C(=O)CCl)c2c(C)cccc2C)c1`, 100 °C.
The same measure for `O=C(c1ccccc1)c1cc(Cl)ccc1-n1cnnc1CN1C(=O)c2ccccc2C1=O`: 229 to 230 °C.
`O=C1CCC(N2Cc3c(OCc4ccc(CN5CCC(F)(F)C5)cc4)cccc3C2=O)C(=O)N1` (stereo not drawn) registered a melting point of 126 to 128 °C.
In turn, `O=C(Nc1ccn[nH]1)c1cccnc1Cl` yielded a melting point of 163 °C.
With `COc1cccc2c1CCC[C@H]2NC(=O)c1cccc(Cl)c1O` the figure was 175 to 176 °C.
Consider `CN(C)CCNC(=O)Cn1c(-c2ccc(Cl)cc2)nc2cccnc21`, for which the melting point lay within 195 to 196 °C.
The compound `CCc1nn(C(C)C)c2cc(C(=O)Nc3c(Cl)cncc3Cl)ccc12` showed a melting point of 145 to 148 °C.
With `ClC(Cl)=CCOc1cc(Cl)c(OCCCCOc2ccc(Cl)cc2)c(Cl)c1`, the melting point turned out to be 54.5 °C.
With `NC(=O)N1C(=O)Cc2cc(NC(=O)c3ccccc3)ccc21` the figure was 223 to 226 °C; with `CC(=CS(N)(=O)=O)c1ccccc1`, 101 to 102 °C.
The same measure for `COc1ccc(C(=O)Nc2ccc3ccc(Oc4ccccc4Br)nc3n2)cc1`: 183 °C; for `CCC1c2ccc(C#N)n2-c2ccc(F)cc2N1S(=O)(=O)c1ccc(OC)c(C)c1` (stereo not drawn): 196 to 199 °C.
The same measure for `CCc1nc(C2CC2)c(C(=O)O)n1Cc1ccc2oc(-c3ccccc3C(=O)NS(=O)(=O)c3ccccc3)c(Br)c2c1`: 176 to 178 °C; for `Clc1cc2c(nn1)-c1ccccc1OC2`: 208 °C.
`COc1cc2c(cc1C(F)(F)F)N(C(=O)Nc1ccc3c(ccn3Cc3cccnc3)c1)CC2` gave a melting point of 243 to 246 °C.
`Cn1c2c(c3cccc(F)c31)C(=O)NCC2` yielded a melting point of 242 °C.
The same measure for `O[C@@H]1CNC[C@H](c2ccc(C(F)(F)F)cc2)C1` (relative stereo): 189 to 192 °C; for `Nc1nc2ccc3ccccc3c2s1`: 258 to 260 °C.
`CCCc1nc(NC(=O)N(C)C)nc(N2CCOCC2)n1` registered a melting point of 110 to 111 °C.
With `Cc1cc(C)nc(NCCN(C(C)C)C(C)C)n1` the figure was 79.5 to 82 °C; with `Nc1cccc2c1CN(c1c(F)cc3c(=O)c(C(=O)O)cn(-c4ccc(F)cc4)c3c1F)C2`, 269 to 274 °C.
The same measure for `COc1cc(C(=O)NS(=O)(=O)c2ccccc2C)ccc1Cc1cn(C)c2ccc(CCNC(=O)N(C)C)cc12`: 124 to 131 °C.
`CCOc1ccc(C(=O)C2CC2)cc1` displayed a melting point of 67 to 70 °C.
With `COC(=O)CCNCC1CC2c3cccc4[nH]cc(c34)CC2N(C)C1` (stereo not drawn) the figure was 130 to 132 °C; with `CC(C)(C)OC(=O)N[C@@H](CCCCN=C=O)C(=O)N1CC(F)(F)C(F)(F)C1`, 68 to 70 °C; with `CCOC(=O)c1[nH]c2c(NS(=O)(=O)c3cccs3)cccc2c1C`, 198 to 199 °C.
With `OC1(C#Cc2ccc(Br)cn2)CN2CCC1CC2` (stereo not drawn) the figure was 194 to 198 °C.
For `Oc1cc2cc(-c3c(F)cccc3F)sc2c(Cl)c1Cl`, the melting point was 161 to 162 °C.
Compound `COc1cc(OCCN2CCCC2)cc(-c2nc3cc(OC)cc(OC)c3c(=O)[nH]2)c1` returned a melting point of 159 to 160 °C.
The same measure for `Cn1c(C(F)(F)F)cc(=O)n(-c2cc(OC(=O)Oc3ccccc3)c(Cl)cc2F)c1=O`: 112 to 115 °C; for `CC(=O)SC(CC(=O)c1ccc(Cl)cc1)C(=O)O` (stereo not drawn): 68 to 69 °C.
The same measure for `Cc1ccc(CNCCOc2cccc3[nH]c(=O)[nH]c23)cc1`: 162 to 163 °C; for `Cc1cc(C)c(CN2CCN(C)CC2)c(C)c1C=O`: 90 °C; for `CCn1nc(C#N)cc1-c1cn(C(C)C)c2cc(NS(C)(=O)=O)ccc12`: 144 to 145 °C.
The same measure for `CCC1OCC(O)CO1` (stereo not drawn): 62 to 68.5 °C.
In the case of `COc1ccc(-c2nc(CCOc3ccc(CC4OC(=O)NC4=O)cc3)c(C)o2)cc1` (stereo not drawn), the melting point was 141 to 143 °C.
Take `O=C(O)c1ccc2c(-c3ccccc3)c([N+](=O)[O-])oc2c1`: the melting point is 244 to 247 °C.
`Clc1cccc(CC[C@H]2CNCCN2)c1` showed a melting point of 93 to 97 °C.
The same measure for `O=C(Cc1ccccn1)c1ccccc1[NH+]([O-])C(=O)c1ccccc1` (stereo not drawn): 192 to 194 °C; for `COC(=O)CC1=C(C)Cc2cc(F)c(OC)cc21`: 61 to 62 °C; for `CCOC(=O)C1=C(C)NC(SCc2ccc(OC)cc2)=NC1c1cccc(Cl)c1Cl` (stereo not drawn): 134 to 135 °C.
The same measure for `NC(=O)c1c(N)cccc1OCCOc1ccccc1`: 127 to 130 °C; for `Ic1ccc2c(c1)ncn2-c1cccc(-c2cncnc2)c1`: 197 to 199 °C; for `CCCCCCCC(=O)N(C)Cc1cccc(-c2ccc(CCC(=O)O)s2)c1`: 67 to 68 °C.
The same measure for `CN(C)CC(F)(F)[C@H](O)[C@@H](N)CC1CCCCC1`: 47 to 49 °C; for `COc1ccccc1NC(=O)Nc1nc(N(CCC(=O)O)Cc2cccc(C)c2)nc(N2CCc3ccccc32)n1`: 201 °C; for `CCCCCCCNC(=O)Oc1ccc2c(c1)N(Cc1ccccc1)CCC2`: 50 °C.
As for `CCCOC(=O)c1cn(C(C)(C)C)c2ncc([N+](=O)[O-])cc12`, the melting point was in the range of 116 to 120 °C.
The same measure for `CCOC(=O)/C=C/c1cn(Cc2ccc3cc(OCc4ccccc4)ccc3c2)cc1-c1ccccc1`: 119 to 120 °C; for `COc1cc(N2CCN(C(=O)Cn3nc(C4=NCCN4)c4cccnc43)CC2)ccc1Cl`: 133 to 135 °C.
Consider `O=S(=O)(Nc1cccc(CCOCc2csc(-c3ccc(C(F)(F)F)cc3)n2)c1)C(F)(F)F`, for which the melting point was in the range of 117 to 119 °C.
The same measure for `CCCc1c(C(=O)C(C)C)c2ccc(C(=O)OC)cc2n1Cc1ccccc1C`: 99 to 102 °C.
The same measure for `O=c1[nH]c2cc(Cl)cc(Cl)c2c(O)c1Sc1ccccc1Br`: 285 to 288 °C.
With `O=c1c2cnn(Cc3ccccc3)c2nc2n1CCS2` the figure was 180 to 182 °C; with `O=C1N(N2CCCCC2)c2ccccc2C1(O)Cc1ccncc1` (stereo not drawn), 156 to 158 °C.
`COc1ccc2c(c1)CCc1cnc(N(C)c3cc(OC)c(OC)c(OC)c3)nc1-2` displayed a melting point of 199 to 201 °C.
The same measure for `COc1c(CCc2ccc(NS(C)(=O)=O)cc2)cc(N2CCC(=O)NC2=O)cc1C(C)(C)C`: 233 to 234 °C.
The same measure for `O=C(Nc1cccnn1)N1CCN(c2nccc(-c3cccc(F)c3)n2)CC1`: 238 to 239 °C; for `O=c1ccc(Oc2ccc3c(c2)CCC2(CCNCC2)O3)n[nH]1`: 233 to 235 °C.
The same measure for `Cc1c(C(=O)O)cccc1-c1cccs1`: 91.5 to 93 °C; for `CN(C)S(=O)(=O)c1cc([N+](=O)[O-])ccc1Cl`: 138 to 140 °C.
As to `Cc1noc(NS(=O)(=O)c2ccccc2-c2cc3ccccc3n2S(=O)(=O)c2ccccc2)c1C`, the melting point was in the range of 207 to 209 °C.
The same measure for `CC(=O)c1c(Cl)n(C)c2ccccc12`: 180 °C.
With `CCOC(=O)c1cc(=O)c2c3c(ccc2o1)C(=O)CC(C(=O)OC)=N3` the figure was 166 to 170 °C; with `O=C(c1ccc(C(F)(F)F)cc1)c1cc(O)c(O)c([N+](=O)[O-])c1`, 116 to 118 °C; with `CC(C#N)c1ccc(C(=O)c2ccc(Cl)cc2)n1C` (stereo not drawn), 145 to 148 °C.
With `CCCC1=C(CCC)C1(C(=O)Nc1ccc(Br)cc1C)C(=O)OC` the figure was 52 to 54 °C; with `COCC(=O)C(=NNc1ccccc1F)C(=O)OC`, 121 to 126 °C.
`Cc1ccc(C)c(Cc2c3ccc(C(C)(C)C)cc3c(Cc3cc(C)ccc3C)c3ccc(C(C)(C)C)cc23)c1`: the melting point lay within 273 to 275 °C.
